Calls of active or inactive are those of the source. The rule behind the calls is not given here.
Assays:
[1] = molecular target: G-protein coupled receptor 52 (Mus musculus, UniProt P0C5J4); assay: In-vivo antagonist activity at GPR52 in HdhQ140 mouse model with GPR52 knockdown assessed as decrease in mHTT levels; type: functional
Mus musculus [2] = assay: Neuroprotective activity in primary striatal neurons from HdhQ140 mouse assessed as rescue of mHTT-induced neuronal survival loss at 5 mg/kg, iv; type: functional, organism-based
[3] = Drug uptake in mouse brain at 5 mg/kg, iv; type: ADME, organism-based; conditions: in vivo, read-out: Drug uptake
[4] = Neuroprotective activity in HdhQ140 mouse model assessed as alleviation of motor deficiency at 5 mg/kg, iv; type: organism-based; conditions: in vivo
Mus musculus [5] = organism: Mus musculus; assay: Neuroprotective activity in primary striatal neurons from HdhQ140 mouse assessed as rescue of mHTT-induced neuronal survival loss; type: functional, organism-based; conditions: Neuron
Mus musculus [6] = assay: Neuroprotective activity in HdhQ140 mouse assessed as decrease in staining intensity of microglia at 5 mg/kg, iv by Iba1staining based analysis; type: functional, organism-based
Mus musculus [7] = assay: Neuroprotective activity in HdhQ140 mouse assessed as decrease in staining intensity of microglia at 0.5 mM, icv by Iba1staining based analysis; type: functional, organism-based

G-protein coupled receptor 52, sequence (P0C5J4 whole entry): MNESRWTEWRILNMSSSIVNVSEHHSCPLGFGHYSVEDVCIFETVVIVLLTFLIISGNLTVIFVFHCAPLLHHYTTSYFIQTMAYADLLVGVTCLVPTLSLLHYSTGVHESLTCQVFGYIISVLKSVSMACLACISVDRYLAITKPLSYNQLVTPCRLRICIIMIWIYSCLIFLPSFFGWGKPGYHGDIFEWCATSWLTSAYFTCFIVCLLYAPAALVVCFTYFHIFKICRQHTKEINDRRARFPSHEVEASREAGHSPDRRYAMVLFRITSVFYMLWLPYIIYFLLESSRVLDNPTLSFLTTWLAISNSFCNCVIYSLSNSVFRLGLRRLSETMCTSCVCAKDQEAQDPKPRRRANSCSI

Row | IC50 [1] [µM] | concentration [3] [nM] | Structure (SMILES) | Activity (Mus musculus [2]) | Activity [4] | Activity (Mus musculus [5]) | Activity (Mus musculus [6]) | Activity (Mus musculus [7])
1 | 6 | – | O=C(/C=C/CCc1ccccc1)CCc1ccccc1 | – | – | – | – | –
2 | – | 20 | O=C(/C=C/CCc1ccccc1)c1cccs1 | Active | Toxic | Active | Active | Active

Source: ChEMBL document CHEMBL4732142, “Discovery of the First Druggable GPR52 Antagonist to Treat Huntington's Disease” (J Med Chem, 2021)
